Assay results as given in paper doi:10.1101/2024.09.10.612317v1 (bioRxiv, 2024).

Key:
BMDCs = test: Cytokine, chemokine and growth factor production by BMDCs; assay type: cell-based, mouse; details: coacervates 10 μM, 24 h, multiplex assays; LPS positive control
[1] = Turbidity and optical microscopy of LLPS; assay type: physicochemical; details: 0.1 M phosphate buffer pH 7.4, 1M NaCl
[2] = test system: BMDCs overlaid with BB7 hybridoma cells; test: Antigen presentation assay with Ag85B and BB7 hybridoma; assay type: cell-based, mouse; details: Ag85B ∼0.5 μM, BMDCs to BB7 cells 1:7

For (GHGLY)4 [GL 20], the “induction of cytokines, chemokines and growth factors in BMDCs” value (BMDCs) was “immunologically inert”, the “coacervates at 1M NaCl (optical micrographs)” value [1] was “presence of coacervates” and the “antigen presentation of Ag85B (IL-2)” value [2] was “enhanced antigen presentation of Ag85B”.

In the case of (GHGVY)4 [GV 20], the “induction of cytokines, chemokines and growth factors in BMDCs” value (BMDCs) is reported as “immunologically inert”, the “coacervates at 1M NaCl (optical micrographs)” value [1] is reported as “presence of coacervates” and the “antigen presentation of Ag85B (IL-2)” value [2] is reported as “enhanced antigen presentation of Ag85B”.
